Test results: US6548494B1, “Tricyclic inhibitors of poly(ADP-ribose) polymerases” (Agouron Pharmaceuticals, Inc., priority 1999, dated 2003)
Where “and” joins values, the source holds several entries; their conditions need not be identical. Equal entries are not always repeated.

Columns and labels:
purified PARP protein = purified PARP protein (Homo sapiens, UniProt P09874); assay: PARP enzyme inhibition assay; type: biochemical; details: 20 nM purified PARP (5 nM for tight-binding inhibitors), 500 μM NAD+, 25° C.; several values in one cell = repeat determinations; read-out: Inhibition Constant Ki
A549 cells = assay: Cytotoxicity potentiation assay; type: cell-based; details: test compound 0.4 μM, ratio of IC50 of topotecan alone to IC50 of topotecan with test compound
Procedure: A549 cells (ATCC, Rockville, Md.) were seeded into 96-well cell culture plates (Falcon brand, Fisher Scientific, Pittsburgh, Pa.) 16 to 24 hours before experimental manipulation. Cells were then treated with a test compound (or a combination of test compounds where indicated) each at a concentration of 0.4 μM for either 3 days or 5 days. At the end of treatments, relative cell number was determined either by MTT assay or SRB assay. For the MTT assay, 0.2 μg/μl of MTT (3-(4,5-dimethylthiazol-2-yl)-2,5-diphenyltetrazolium bromide) (Sigma Chemical Co., St. Louis, Mo.) was added to each well of a plate, and the plate was incubated in a cell-culture incubator for 4 hours. Metabolized MTT in each well was solubilized in 150 μl of DMSO (Sigma Chemical Co.) with shaking and quantified with a Wallac 1420 Victor plate reader (EG&G Wallac, Gaithersburg, Md.) at 540 nm. For the SRB assay, cells were fixed with 10% trichloroacetic acid (Sigma Chemical Co) for an hour at 4° C. After extensively washing, fixed cells were stained for 30 minutes with 0.4% sulforhodamine B (SRB, Sigma Chemical Co.) in 1% acetic acid (Sigma Chemical Co). Unbound SRB was washed away with 1% acetic acid. Then the cultures were air-dried, and dye was solubilized with 10 mM unbuffered Tris base (Sigma Chemical Co) with shaking. The bound dye was measured photometrically with the Wallac Victor plate reader at 515 nm. The ratio of the OD (optical density) value of a compound-treated culture to the OD value of a mock-treated culture, expressed in percentage, was used to quantify the cytotoxicity of a compound. […] To quantify the potentiation of the cytotoxicity of topotecan or temozolomide by test compounds, a dimensionless parameter PF50 is used and is defined as the ratio of the IC50 of topotecan or temozolomide alone to the IC50 of topotecan or temozolomide in combination with a test compound. For the compounds of the invention, PF50 values were determined by testing with topotecan.

purified PARP protein, sequence (P09874 whole entry): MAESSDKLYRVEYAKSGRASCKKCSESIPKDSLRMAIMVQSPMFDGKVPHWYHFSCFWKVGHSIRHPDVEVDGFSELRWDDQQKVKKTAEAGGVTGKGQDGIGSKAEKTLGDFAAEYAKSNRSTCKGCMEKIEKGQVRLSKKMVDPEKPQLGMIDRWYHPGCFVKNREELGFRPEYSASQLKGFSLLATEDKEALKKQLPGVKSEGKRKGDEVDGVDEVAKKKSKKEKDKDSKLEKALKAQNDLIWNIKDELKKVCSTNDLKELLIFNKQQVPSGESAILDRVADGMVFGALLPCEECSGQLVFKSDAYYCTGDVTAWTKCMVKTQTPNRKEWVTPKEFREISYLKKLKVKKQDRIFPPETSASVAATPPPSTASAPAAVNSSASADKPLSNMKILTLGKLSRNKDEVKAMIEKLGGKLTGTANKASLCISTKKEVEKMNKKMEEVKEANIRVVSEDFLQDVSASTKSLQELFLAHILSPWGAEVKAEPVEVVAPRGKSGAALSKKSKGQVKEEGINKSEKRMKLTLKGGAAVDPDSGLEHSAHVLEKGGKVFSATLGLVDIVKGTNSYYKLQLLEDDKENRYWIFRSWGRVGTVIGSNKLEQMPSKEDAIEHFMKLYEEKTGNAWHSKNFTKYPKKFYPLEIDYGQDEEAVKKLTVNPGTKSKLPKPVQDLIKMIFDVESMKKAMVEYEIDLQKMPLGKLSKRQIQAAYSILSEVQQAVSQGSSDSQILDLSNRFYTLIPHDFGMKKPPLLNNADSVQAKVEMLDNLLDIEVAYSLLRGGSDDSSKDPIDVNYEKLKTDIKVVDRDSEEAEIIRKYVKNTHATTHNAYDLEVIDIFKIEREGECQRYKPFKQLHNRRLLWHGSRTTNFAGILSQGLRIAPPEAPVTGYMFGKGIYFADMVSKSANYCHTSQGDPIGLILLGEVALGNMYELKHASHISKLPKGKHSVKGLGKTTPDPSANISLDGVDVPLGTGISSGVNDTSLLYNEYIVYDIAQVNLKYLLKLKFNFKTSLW

Row | Compound | melting point | Ki (purified PARP protein) | Cytotoxicity Potentiation PF50 (A549 cells)
1 | COCCNCc1ccc(-c2nc3cccc4c3n2CCNC4=O)cc1 [Example 77, 1-(4-[(2-Methoxyethylamino)methyl]-phenyl)-8,9-dihydro-7H-2,7,9a-triaza-benzo[cd]azulen-6-one] | 154 to 157 °C | 6.9 nM | 1.7
2 | CN(C)Cc1cccc(-c2cc3cccc4c3n2CCNC4=O)c1 [Example 86, 6-(3-Dimethylaminomethyl-phenyl)-3,4-dihydro-2H-[1,4]diazepino[6,7,1-hi]indol-1-one] | 98 to 100 °C | 9.1 nM | 1.6
3 | CNCc1ccc(-c2nc3cc(F)cc4c3n2CCNC4=O)cc1 [Example 98, 4-Fluoro-1-(4-methylaminomethyl-phenyl)-8,9-dihydro-7H-2,7,9a-triaza-benzo[cd]azulen-6-one] | 204 to 208 °C (dec.) | 3.3 nM | 2.1
4 | CN(C)Cc1ccc(-c2nc3cc(F)cc4c3n2CCNC4=O)cc1 [Example 99, 4-Fluoro-1-(4-dimethylaminomethyl-phenyl)-8,9-dihydro-7H-2,7,9a-triaza-benzo[cd]azulen-6-one] | 240 °C (dec.) | 1.7 nM | 2.0
5 | O=C1NCCn2c(-c3ccc(CNC4CC4)cc3)nc3cccc1c32 [Example 101, 1-(4-Cyclopropylaminomethyl-phenyl)-8,9-dihydro-7H-2,7,9a-triaza-benzo[cd]azulen-6-one] | 84 °C (dec.) | 2.3 nM | 2.1
6 | O=C1NCCn2c(-c3ccc(-n4ccnc4)cc3)nc3cccc1c32 [Example 119, 1-(4-Imidazol-1-yl-phenyl)-8,9-dihydro-7H-2,7,9a-triaza-benzo[cd]azulen-6-one] | > 300 °C (dec.) | 3.2 nM and 4.2 nM | 2.2
7 | O=C1NCCn2c(-c3ccc(-c4ccccn4)cc3)nc3cccc1c32 [Example 126, 1-(4-Pyridin-2-yl-phenyl)-8,9-dihydro-7H-2,7,9a-triaza-benzo[cd]azulen-6-one] | 277 to 279 °C | 4.1 nM | 2.2
8 | O=C1NCCn2c(-c3ccc(CCN4CCCC4)cc3)nc3cccc1c32 [Example 128, 1-[4-(2-Pyrrolidin-1-yl-ethyl)-phenyl]-8,9-dihydro-7H-2,7,9a-triaza-benzo[cd]azulen-6-one] | > 201 °C (dec.) | 4 nM and 5.4 nM | 1.8
9 | CN(C)CCc1ccc(-c2nc3cccc4c3n2CCNC4=O)cc1 [Example 129, 1-[4-(2-Dimethylamino-ethyl)-phenyl]-8,9-dihydro-7H-2,7,9a-triaza-benzo[cd]azulen-6-one] | > 98 °C (dec.) | 5 nM | 1.9
10 | O=C1NCCn2c(-c3ccc(C4CCCCN4)cc3)nc3cccc1c32 (stereo not drawn) [Example 130, 1-(4-Piperidin-2-yl-phenyl)-8,9-dihydro-7H-2,7,9a-triaza-benzo[cd]azulen-6-one] | 263 to 265 °C | 4.4 nM and 5.6 nM | 3.4
11 | CN1CCCCC1c1ccc(-c2nc3cccc4c3n2CCNC4=O)cc1 (stereo not drawn) [Example 132, 1-[4-(1-Methyl-piperidin-2-yl)-phenyl]-8,9-dihydro-7H-2,7,9a-triaza-benzo[cd]azulen-6-one] | > 180 °C (dec.) | 6.8 nM | 2.4
12 | O=C1NCCn2c(-c3ccc(-c4cccnc4)cc3)nc3cccc1c32 [Example 134, 1-(4-Pyridin-3-yl-phenyl)-8,9-dihydro-7H-2,7,9a-triaza-benzo[cd]azulen-6-one] | 284 to 286 °C | 2.8 nM | 2.5
13 | O=C1NCCn2c(-c3ccc(C4CCNCC4)cc3)nc3cccc1c32 [Example 137, 1-(4-Piperidin-4-yl-phenyl)-8,9-dihydro-7H-2,7,9a-triaza-benzo[cd]azulen-6-one] | > 192 °C (dec.) | 5.4 nM | 2.2
14 | CN1CCC(c2ccc(-c3nc4cccc5c4n3CCNC5=O)cc2)CC1 [Example 141, 1-[4-(1-Methyl-piperidin-4-yl)-phenyl]-8,9-dihydro-7H-2,7,9a-triaza-benzo[cd]azulen-6-one] | > 240 °C (dec.) | 5.5 nM | 2.3
15 | O=C1NCCn2c(-c3ccc(C4CCCNC4)cc3)nc3cccc1c32 (stereo not drawn) [Example 142, 1-(4-Piperidin-3-yl-phenyl)-8,9-dihydro-7H-2,7,9a-triaza-benzo[cd]azulen-6-one] | > 230 °C (dec.) | 3.8 nM | 2.2
16 | O=C1NCCn2c(-c3ccc(C4CCCN4)cc3)nc3cccc1c32 (stereo not drawn) [Example 148, 1-(4-Pyrrolidin-2-yl-phenyl)-8,9-dihydro-7H-2,7,9a-triaza-benzo[cd]azulen-6-one] | 220 to 223 °C (dec.) | 2.8 nM | 2.5
17 | CN1CCCC1c1ccc(-c2nc3cccc4c3n2CCNC4=O)cc1 (stereo not drawn) [Example 149] | 235 to 238 °C (dec.) | 4.2 nM | 2.6
18 | CN(C)Cc1ccc(-c2cc3cc(F)cc4c3n2CCNC4=O)cc1 [Example 170, 6-(4-Dimethylaminomethyl-phenyl)-9-fluoro-3,4-dihydro-2H-[1,4]diazepino[6,7,1-hi]indol-1-one] | 172 to 174 °C | 3.1 nM | 1.9
